Test results reported in patent US20110008463A1, “COMBINATIONS OF HYDROXYPYRION COMPOUNDS AND SILVER COMPOUNDS” (priority 2008, published 2011).

Tests used:
[1] = tested on: Chaetomium globosum; experiment: Poison Plate Assay (fungi, Glucose Agar); assay type: cell-based; conditions: Chaetomium globosum ATCC6205, ppm total active ingredient, 27° C., growth evaluated after two weeks, label = % (I-e) + % nano-silver
Protocol: (§1) Test models: • Fungi: to each well of a 24-well microtiter plate, 1000 μl of Glucose Agar (GA: 10 g glucose, 1.5 g K2HPO4, 2 g KH2PO4, 1 g (NH4)2SO4, 0.5 g MgSO4 and 12.5 g agar in 1 liter deionised water) containing the appropriate combination of the test compounds in one of the concentrations of a dose series is added. The nutrient medium is inoculated with the test fungi by adding a spore/mycelium suspension (10 μl) or a small piece of agar from the margin of an actively growing colony and incubated under dark at 27° C. with 70% relative humidity. The growth of the fungi is evaluated after two weeks. • Glucose agar is used here instead of PDA (Potato Dextrose Agar), as an alternative, poorer medium for the fungi, in order to increase the chances of detecting activity in compounds whose mode of action might be circumvented by fungi on a […]). Moreover, a richer organic medium has more potential to complex and inactivate antibacterial silver ions (Lasater et al. 1999, Weissbuch et al. 2002). • Bacteria : to each well of a 24-well microtiter plate, 1000 μL Tryptose Agar (TA, 20 g bacto tryptose agar, 5 g sodium chloride, 1 g bacto dextrose and 15 g agar in l liter deionised water), containing the test compounds in one of the concentrations of a dose series is added. […] Growth is evaluated after five days. […]

[2] = tested on: Ulocladium atrum; experiment: Poison Plate Assay (fungi, Glucose Agar); assay type: cell-based; conditions: Ulocladium atrum IMI214699a, ppm total active ingredient, 27° C., growth evaluated after two weeks, label = % (I-e) + % nano-silver
Protocol: as §1

Cc1cc(CC(C)CC(C)(C)C)n(O)c(=O)c1.NCCO (centres unmarked) [100 + 0, piroctone olamine]
MIC-values (minimum inhibitory concentration) in ppm [1]: 3.16 ppm | MIC-values (minimum inhibitory concentration) in ppm [2]: 3.16 ppm
